# Data: ChEMBL document CHEMBL1122067, “Species- or isozyme-specific enzyme inhibitors. 4. Design of a two-site inhibitor of adenylate kinase with isozyme selectivity” (J Med Chem, 1982)
# Tests used:
# [1] = test system: CCCCNc1ncnc2c1ncn2C1O[C@H](COP(=O)(O)OP(=O)(O)OP(=O)(O)O)[C@@H](O)[C@H]1O; assay: (§1) Concentration for half-maximal velocity for adenylate kinase (AK II) was determined
# [2] = test system: Nc1ncnc2c1ncn2[C@@H]1O[C@H](COP(=O)(O)O)[C@@H](O)[C@H]1O; assay: as §1
# [3] = test system: O=C(CI)NCCCCCNc1ncnc2c1ncn2C1O[C@H](COP(=O)(O)OP(=O)(O)OP(=O)(O)O)[C@@H](O)[C@H]1O; assay: as §1
# [4] = test system: CC(=O)NCCCCCCCCNc1ncnc2c1ncn2C1O[C@H](COP(=O)(O)O)[C@@H](O)[C@H]1O; assay: (§2) Inhibitory constant of rat adenylate kinase (AK II) isozymes expressed as relative maximal velocity
# [5] = test system: CC(=O)NCCNc1ncnc2c1ncn2C1O[C@H](COP(=O)(O)O)[C@@H](O)[C@H]1O; assay: as §2
# [6] = test system: CCCCNc1ncnc2c1ncn2C1O[C@H](COP(=O)(O)OP(=O)(O)OP(=O)(O)O)[C@@H](O)[C@H]1O; assay: as §2
# [7] = test system: CCSc1nc2c(N)ncnc2n1[C@@H]1O[C@H](COP(=O)(O)O)[C@@H](O)[C@H]1O; assay: as §2
# [8] = test system: Nc1ncnc2c1ncn2[C@@H]1O[C@H](COP(=O)(O)O)[C@@H](O)[C@H]1O; assay: as §2
# [9] = test system: O=C(CI)NCCCCCNc1ncnc2c1ncn2C1O[C@H](COP(=O)(O)OP(=O)(O)OP(=O)(O)O)[C@@H](O)[C@H]1O; assay: as §2
# [10] = Inhibitory constant of rat adenylate kinase (AK) isozymes expressed as relative maximal velocity
# [11] = Concentration for half-maximal velocity for adenylate kinase (AK) was determined
# [12] = Inhibitory constant of rat adenylate kinase(AK) isozymes and maximal velocity was determined
compound,measurement,setting,value
"Adenylate kinase 2, mitochondrial (Rattus norvegicus) (from UniProt P29410)",Km,[1],1400 µM
same,Km,[2],90 µM
same,Km,[3],1000 µM
same,Vmax,[4],0%
same,Vmax,[5],0%
same,Vmax,[6],13%
same,Vmax,[7],0%
same,Vmax,[8],100%
same,Vmax,[9],21%
CCCCNc1ncnc2c1ncn2C1O[C@H](COP(=O)(O)OP(=O)(O)OP(=O)(O)O)[C@@H](O)[C@H]1O (stereo partly specified),Vmax,[10],86%
same,Km,[11],2800 µM
CC(=O)NCCNc1ncnc2c1ncn2C1O[C@H](COP(=O)(O)O)[C@@H](O)[C@H]1O (stereo partly specified),Vmax,[12],0%
CC(=O)NCCCCCCCCNc1ncnc2c1ncn2C1O[C@H](COP(=O)(O)O)[C@@H](O)[C@H]1O (stereo partly specified),Vmax,[10],0%
CCCSc1nc2c(N)ncnc2n1[C@@H]1O[C@H](COP(=O)(O)OP(=O)(O)OP(=O)(O)O)[C@@H](O)[C@H]1O,Vmax,[10],0%
CCCCN(CCCC)c1ncnc2c1ncn2C1O[C@H](COP(=O)(O)OP(=O)(O)OP(=O)(O)O)[C@@H](O)[C@H]1O (stereo partly specified),Vmax,[10],0%
O=C(CI)NCCCCCNc1ncnc2c1ncn2C1O[C@H](COP(=O)(O)OP(=O)(O)OP(=O)(O)O)[C@@H](O)[C@H]1O (stereo partly specified),Vmax,[10],0%
CCCCSc1ncnc2c1ncn2C1O[C@H](COP(=O)(O)OP(=O)(O)OP(=O)(O)O)[C@@H](O)[C@H]1O (stereo partly specified),Vmax,[10],192%
same,Km,[11],4000 µM
Nc1ncnc2c1ncn2[C@@H]1O[C@H](COP(=O)(O)OP(=O)(O)OP(=O)(O)O)[C@@H](O)[C@H]1O,Vmax,[10],100%
same,Km,[11],570 µM
Nc1ncnc2c1nc(Sc1ccccc1)n2[C@@H]1O[C@H](COP(=O)(O)OP(=O)(O)OP(=O)(O)O)[C@@H](O)[C@H]1O,Vmax,[10],0%
